Source: patent US9695155B2, “Herbicidal substituted pyrimidinyloxy benzene compounds” (E. I. DU PONT DE NEMOURS AND COMPANY, priority 2013, dated 2017)

What was measured:
[1] = tested on: deadnettle; assay: Test D postemergence; format: in vivo, Lamium amplexicaule; settings: Lamium amplexicaule, post-emergence
Method in brief: (§1)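 Visual ratings from 0 (no effect) to 100 (complete control) relative to untreated plants were taken 7–21 days after treatment. Chemicals in a surfactant-containing solvent mixture were applied preemergence to seeds in silt loam, or postemergence to plants 2–18 cm tall (1–4 leaves) grown in a peat-based potting medium.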

[2] = tested on: bluegrass; assay: Test D postemergence; format: in vivo, Poa annua; settings: Poa annua, post-emergence, Postemergence, scale 0 to 100 (0 no effect, 100 complete control), read-out: Plant response rating, Bluegrass
Method in brief: as §1

[3] = tested on: bluegrass; assay: Test D preemergence; format: in vivo, Poa annua; settings: Poa annua, pre-emergence
Method in brief: as §1

[4] = tested on: oilseed rape; assay: Test D preemergence; format: in vivo, Brassica napus; settings: Brassica napus, pre-emergence
Method in brief: as §1

[5] = tested on: chamomile; assay: Test D preemergence; format: in vivo, Matricaria inodora; settings: Tripleurospermum inodorum, pre-emergence
Method in brief: as §1

[6] = tested on: speedwell; assay: Test D preemergence; format: in vivo, Veronica persica; settings: Veronica persica, pre-emergence
Method in brief: as §1

[7] = tested on: Italian ryegrass; assay: Test D postemergence; format: in vivo, Lolium multiflorum; settings: Lolium multiflorum, post-emergence
Method in brief: as §1

[8] = tested on: wild buckwheat; assay: Test D postemergence; format: in vivo, Polygonum convolvulus; settings: Fallopia convolvulus, post-emergence, Postemergence, scale 0 to 100 (0 no effect, 100 complete control), read-out: Plant response rating, Buckwheat, Wild
Method in brief: as §1

[9] = tested on: pigweed; assay: Test D postemergence; format: in vivo, Amaranthus retroflexus; settings: Amaranthus retroflexus, post-emergence
Method in brief: as §1

[10] = tested on: wild buckwheat; assay: Test D preemergence; format: in vivo, Polygonum convolvulus; settings: Fallopia convolvulus, pre-emergence
Method in brief: as §1

[11] = tested on: wild mustard; assay: Test D postemergence; format: in vivo, Sinapis arvensis; settings: Brassica, post-emergence
Method in brief: as §1

[12] = tested on: bromegrass, downy; assay: Test D postemergence; format: in vivo, Bromus tectorum; settings: Bromus tectorum, post-emergence, Postemergence, scale 0 to 100 (0 no effect, 100 complete control), read-out: Plant response rating, Bromegrass, Downy
Method in brief: as §1

FC(F)(F)c1cn(-c2ccccc2Oc2ncc(Cl)cn2)nn1 [Compound 166, 5-chloro-2-[2-[4-(trifluoromethyl)-1H-1,2,3-triazol-1-yl]phenoxy]pyrimidine]
pest or weed control at 16 g/ha ([1]; 16 g ai/ha, scale 0-100, read-out: Plant response rating, Deadnettle): 40%
pest or weed control at 31 g/ha ([1]; 31 g ai/ha, scale 0 to 100 (0 no effect, 100 complete control), read-out: Plant response rating, Deadnettle): 60%
pest or weed control at 62 g/ha ([1]; 62 g ai/ha, scale 0 to 100 (0 no effect, 100 complete control), read-out: Plant response rating, Deadnettle): 65%
pest or weed control at 125 g/ha ([1]; 125 g ai/ha, scale 0 to 100 (0 no effect, 100 complete control), read-out: Plant response rating, Deadnettle): 70%
pest or weed control at 16 g/ha ([2]; 16 g ai/ha): 20%
pest or weed control at 31 g/ha ([2]; 31 g ai/ha): 40%
pest or weed control at 62 g/ha ([2]; 62 g ai/ha): 55%
pest or weed control at 125 g/ha ([2]; 125 g ai/ha): 65%
pest or weed control at 16 g/ha ([3]; 16 g ai/ha, scale 0 (no effect) to 100 (complete control), read-out: Plant response rating, Bluegrass): 5%
pest or weed control at 31 g/ha ([3]; 31 g ai/ha, scale 0-100, read-out: Plant response rating, Bluegrass): 20%
pest or weed control at 62 g/ha ([3]; 62 g ai/ha, scale 0-100, read-out: Plant response rating, Bluegrass): 65%
pest or weed control at 125 g/ha ([3]; 125 g ai/ha, scale 0-100, read-out: Plant response rating, Bluegrass): 100%
plant injury at 16 g/ha ([4]; 16 g ai/ha, scale 0 (no effect) to 100 (complete control), read-out: Plant response rating, Oilseed Rape): 35%
plant injury at 31 g/ha ([4]; 31 g ai/ha, scale 0-100, read-out: Plant response rating, Oilseed Rape): 50%
plant injury at 62 g/ha ([4]; 62 g ai/ha, scale 0-100, read-out: Plant response rating, Oilseed Rape): 100%
plant injury at 125 g/ha ([4]; 125 g ai/ha, scale 0-100, read-out: Plant response rating, Oilseed Rape): 100%
pest or weed control at 16 g/ha ([5]; 16 g ai/ha, scale 0 (no effect) to 100 (complete control), read-out: Plant response rating, Chamomile): 5%
pest or weed control at 31 g/ha ([5]; 31 g ai/ha, scale 0-100, read-out: Plant response rating, Chamomile): 25%
pest or weed control at 62 g/ha ([5]; 62 g ai/ha, scale 0-100, read-out: Plant response rating, Chamomile): 50%
pest or weed control at 125 g/ha ([5]; 125 g ai/ha, scale 0-100, read-out: Plant response rating, Chamomile): 55%
pest or weed control at 16 g/ha ([6]; 16 g ai/ha, scale 0 (no effect) to 100 (complete control), read-out: Plant response rating, Speedwell): 100%
pest or weed control at 31 g/ha ([6]; 31 g ai/ha, scale 0 (no effect) to 100 (complete control), read-out: Plant response rating, Speedwell): 100%
pest or weed control at 62 g/ha ([6]; 62 g ai/ha, scale 0-100, read-out: Plant response rating, Speedwell): 100%
pest or weed control at 125 g/ha ([6]; 125 g ai/ha, scale 0-100, read-out: Plant response rating, Speedwell): 100%
pest or weed control at 16 g/ha ([7]; 16 g ai/ha, scale 0-100, read-out: Plant response rating, Ryegrass, Italian): 10%
pest or weed control at 31 g/ha ([7]; 31 g ai/ha, scale 0 to 100 (0 no effect, 100 complete control), read-out: Plant response rating, Ryegrass, Italian): 20%
pest or weed control at 62 g/ha ([7]; 62 g ai/ha, scale 0 to 100 (0 no effect, 100 complete control), read-out: Plant response rating, Ryegrass, Italian): 25%
pest or weed control at 125 g/ha ([7]; 125 g ai/ha, scale 0 to 100 (0 no effect, 100 complete control), read-out: Plant response rating, Ryegrass, Italian): 40%
pest or weed control at 16 g/ha ([8]; 16 g ai/ha): 70%
pest or weed control at 31 g/ha ([8]; 31 g ai/ha): 95%
pest or weed control at 62 g/ha ([8]; 62 g ai/ha): 95%
pest or weed control at 125 g/ha ([8]; 125 g ai/ha): 100%
pest or weed control at 16 g/ha ([9]; 16 g ai/ha, scale 0-100, read-out: Plant response rating, Pigweed): 80%
pest or weed control at 31 g/ha ([9]; 31 g ai/ha, scale 0 to 100 (0 no effect, 100 complete control), read-out: Plant response rating, Pigweed): 85%
pest or weed control at 62 g/ha ([9]; 62 g ai/ha, scale 0 to 100 (0 no effect, 100 complete control), read-out: Plant response rating, Pigweed): 95%
pest or weed control at 125 g/ha ([9]; 125 g ai/ha, scale 0 to 100 (0 no effect, 100 complete control), read-out: Plant response rating, Pigweed): 95%
pest or weed control at 16 g/ha ([10]; 16 g ai/ha, scale 0 (no effect) to 100 (complete control), read-out: Plant response rating, Buckwheat, Wild): 60%
pest or weed control at 31 g/ha ([10]; 31 g ai/ha, scale 0-100, read-out: Plant response rating, Buckwheat, Wild): 95%
pest or weed control at 62 g/ha ([10]; 62 g ai/ha, scale 0-100, read-out: Plant response rating, Buckwheat, Wild): 100%
pest or weed control at 125 g/ha ([10]; 125 g ai/ha, scale 0-100, read-out: Plant response rating, Buckwheat, Wild): 100%
pest or weed control at 16 g/ha ([11]; 16 g ai/ha, scale 0-100, read-out: Plant response rating, Mustard, Wild): 75%
pest or weed control at 31 g/ha ([11]; 31 g ai/ha, scale 0 to 100 (0 no effect, 100 complete control), read-out: Plant response rating, Mustard, Wild): 80%
pest or weed control at 62 g/ha ([11]; 62 g ai/ha, scale 0 to 100 (0 no effect, 100 complete control), read-out: Plant response rating, Mustard, Wild): 85%
pest or weed control at 125 g/ha ([11]; 125 g ai/ha, scale 0 to 100 (0 no effect, 100 complete control), read-out: Plant response rating, Mustard, Wild): 100%
pest or weed control at 16 g/ha ([12]; 16 g ai/ha): 15%
pest or weed control at 31 g/ha ([12]; 31 g ai/ha): 20%
pest or weed control at 62 g/ha ([12]; 62 g ai/ha): 35%
pest or weed control at 125 g/ha ([12]; 125 g ai/ha): 50%
